Laboratory results: ChEMBL document CHEMBL5550201, “Discovery of a Highly Potent, Selective and Efficacious USP7 Degrader for the Treatment of Acute Lymphoblastic Leukemia” (J Med Chem, 2024)
Calls of active or inactive are those of the source. The calls are words filed in the database; no cut-off is given here.

Assays:
[1] = biological target: T1, von Hippel-Lindau disease tumor suppressor/Ubiquitin carboxyl-terminal hydrolase 7 (Homo sapiens, UniProt Q93009+P40337); assay: PROTACT activity at USP7/VHL in human RS4;11 cells assessed as protein degradation at 10 nM measured after 24 hrs by Western blot analysis relative to control; type: cell-based
Target sequence in this assay (P40337 whole entry, looked up): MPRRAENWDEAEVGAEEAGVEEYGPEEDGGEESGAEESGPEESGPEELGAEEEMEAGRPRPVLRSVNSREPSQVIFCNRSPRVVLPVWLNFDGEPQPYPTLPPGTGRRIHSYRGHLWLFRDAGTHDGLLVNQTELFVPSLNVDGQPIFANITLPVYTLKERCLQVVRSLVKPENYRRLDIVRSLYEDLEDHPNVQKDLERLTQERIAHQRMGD
Target sequence in this assay (Q93009 whole entry, looked up): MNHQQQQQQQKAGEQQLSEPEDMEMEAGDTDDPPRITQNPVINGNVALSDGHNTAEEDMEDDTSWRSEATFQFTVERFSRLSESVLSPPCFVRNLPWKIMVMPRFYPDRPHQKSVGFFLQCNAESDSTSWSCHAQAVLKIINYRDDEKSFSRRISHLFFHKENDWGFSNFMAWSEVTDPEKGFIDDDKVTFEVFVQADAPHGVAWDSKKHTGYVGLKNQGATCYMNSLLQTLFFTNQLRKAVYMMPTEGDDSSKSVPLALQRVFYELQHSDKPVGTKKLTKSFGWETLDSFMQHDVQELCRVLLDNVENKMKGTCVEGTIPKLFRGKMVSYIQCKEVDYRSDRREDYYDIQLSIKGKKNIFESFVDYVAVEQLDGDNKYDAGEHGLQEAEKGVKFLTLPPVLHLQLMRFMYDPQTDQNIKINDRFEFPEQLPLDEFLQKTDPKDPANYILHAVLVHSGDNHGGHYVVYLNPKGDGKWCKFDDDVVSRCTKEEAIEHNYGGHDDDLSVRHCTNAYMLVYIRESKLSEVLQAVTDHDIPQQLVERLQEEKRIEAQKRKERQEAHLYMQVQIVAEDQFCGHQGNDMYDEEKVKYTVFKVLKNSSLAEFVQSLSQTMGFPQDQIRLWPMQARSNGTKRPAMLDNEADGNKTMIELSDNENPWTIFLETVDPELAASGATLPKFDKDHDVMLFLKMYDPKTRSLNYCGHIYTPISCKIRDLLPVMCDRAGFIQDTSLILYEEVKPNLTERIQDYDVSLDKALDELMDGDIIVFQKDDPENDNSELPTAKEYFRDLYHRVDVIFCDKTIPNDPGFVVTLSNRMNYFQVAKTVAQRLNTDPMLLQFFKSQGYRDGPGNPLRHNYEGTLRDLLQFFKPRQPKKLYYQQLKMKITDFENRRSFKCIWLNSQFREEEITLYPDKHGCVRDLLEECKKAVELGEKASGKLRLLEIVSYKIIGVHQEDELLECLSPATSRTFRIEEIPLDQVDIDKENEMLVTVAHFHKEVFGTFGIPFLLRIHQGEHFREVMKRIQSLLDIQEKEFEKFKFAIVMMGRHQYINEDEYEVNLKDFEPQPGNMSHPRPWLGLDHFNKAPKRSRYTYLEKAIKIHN

[2] = biological target: T1, von Hippel-Lindau disease tumor suppressor/Ubiquitin carboxyl-terminal hydrolase 7; assay: PROTACT activity at USP7/VHL in human RS4;11 cells assessed as protein degradation at 100 nM measured after 24 hrs by Western blot analysis relative to control; type: cell-based
Target sequence in this assay (P40337 whole entry, looked up): as the sequence (P40337 whole entry, looked up) above
Target sequence in this assay (Q93009 whole entry, looked up): as the sequence (Q93009 whole entry, looked up) above

[3] = biological target: T1, von Hippel-Lindau disease tumor suppressor/Ubiquitin carboxyl-terminal hydrolase 7; assay: PROTACT activity at USP7/VHL in human RS4;11 cells assessed as protein degradation measured after 24 hrs by Western blot analysis; type: cell-based
Target sequence in this assay (Q93009 whole entry): as the sequence (Q93009 whole entry, looked up) above
Target sequence in this assay (P40337 whole entry): as the sequence (P40337 whole entry, looked up) above

[4] = biological target: T1, von Hippel-Lindau disease tumor suppressor/Ubiquitin carboxyl-terminal hydrolase 7; assay: PROTACT activity at USP7/VHL in human RS4;11 cells assessed as maximal protein degradation measured after 24 hrs by Western blot analysis relative to control; type: cell-based
Target sequence in this assay (P40337 whole entry, looked up): as above
Target sequence in this assay (Q93009 whole entry, looked up): as the sequence (Q93009 whole entry, looked up) above

[5] = biological target: T1, von Hippel-Lindau disease tumor suppressor/Ubiquitin carboxyl-terminal hydrolase 7; assay: PROTACT activity at USP7/VHL in human RS4;11 cells assessed as protein degradation at 10 to 100 nM measured after 12 hrs by Western blot analysis; type: cell-based; conditions: dose 10-100 nM
Target sequence in this assay (P40337 whole entry, looked up): as the sequence (P40337 whole entry, looked up) above
Target sequence in this assay (Q93009 whole entry, looked up): as the sequence (Q93009 whole entry, looked up) above

[6] = biological target: T1, von Hippel-Lindau disease tumor suppressor/Ubiquitin carboxyl-terminal hydrolase 7; assay: PROTACT activity at USP7/VHL in human REH cells assessed as protein degradation at 10 to 100 nM measured after 12 hrs by Western blot analysis; type: cell-based; conditions: dose 10-100 nM
Target sequence in this assay (P40337 whole entry, looked up): as the sequence (P40337 whole entry, looked up) above
Target sequence in this assay (Q93009 whole entry, looked up): as the sequence (Q93009 whole entry, looked up) above

[7] = biological target: T1, von Hippel-Lindau disease tumor suppressor/Ubiquitin carboxyl-terminal hydrolase 7; assay: PROTACT activity at USP7/VHL in human OCI-Ly10 cells assessed as protein degradation at 10 to 100 nM measured after 12 hrs by Western blot analysis; type: cell-based; conditions: dose 10-100 nM
Target sequence in this assay (P40337 whole entry, looked up): as the sequence (P40337 whole entry, looked up) above
Target sequence in this assay (Q93009 whole entry, looked up): as the sequence (Q93009 whole entry, looked up) above

[8] = biological target: T1, von Hippel-Lindau disease tumor suppressor/Ubiquitin carboxyl-terminal hydrolase 7; assay: PROTACT activity at USP7/VHL in human RS4;11 cells assessed as protein degradation at 10 nM measured after 2 to 4 hrs by Western blot analysis; type: cell-based; conditions: time 2-4 hrs
RS4-11 [9] = assay: Upregulation of p53 protein expression in human RS4-11 cells measured after 12 hrs incubation by Western blot analysis; type: functional, cell-based; conditions: dose 10-100 nM
RS4-11 [10] = assay: Upregulation of p21 protein expression in human RS4-11 cells measured after 12 hrs incubation by Western blot analysis; type: functional, cell-based; conditions: dose 10-100 nM
[11] = biological target: T1, von Hippel-Lindau disease tumor suppressor/Ubiquitin carboxyl-terminal hydrolase 7; assay: PROTACT activity at USP7/VHL in human RS4;11 cells assessed as protein degradation at 10 nM measured after 6 hrs in presence of VHL-binder by Western blot analysis; type: cell-based
[12] = biological target: T1, von Hippel-Lindau disease tumor suppressor/Ubiquitin carboxyl-terminal hydrolase 7; assay: PROTACT activity at USP7/VHL in human RS4;11 cells assessed as protein degradation at 10 nM measured after 6 hrs in presence of NEDD8-activating enzyme inhibitor […] by Western blot analysis; type: cell-based
[13] = biological target: T1, von Hippel-Lindau disease tumor suppressor/Ubiquitin carboxyl-terminal hydrolase 7; assay: PROTACT activity at USP7/VHL in human RS4;11 cells assessed as protein degradation at 10 nM measured after 6 hrs in presence of proteasome inhibitors PS-171 by Western blot analysis; type: cell-based
[14] = biological target: T1, von Hippel-Lindau disease tumor suppressor/Ubiquitin carboxyl-terminal hydrolase 7; assay: PROTACT activity at USP7/VHL in human RS4;11 cells assessed as selective USP7 degradation at 100 nM measured after 4 hrs by proteomics analysis; type: cell-based
RS4-11 [15] = assay: Antiproliferative activity against human RS4-11 cells with wild type p53 assessed as cell viability measured after 3 days by PMS-MTS assay; type: functional, cell-based; conditions: RS4-11, 72 h
RS4-11 [16] = assay: Antiproliferative activity against human RS4-11 cells with shp53 assessed as cell viability measured after 7 days by PMS-MTS assay; type: functional, cell-based; conditions: RS4-11, 168 h
REH = assay: Antiproliferative activity against human REH cells with wild type p53 assessed as cell viability measured after 3 days by PMS-MTS assay; type: functional, cell-based; conditions: 72 h
RS4-11 [17] = assay: Induction of apoptosis in human RS4-11 cells assessed as viable cells at 1 nM measured after 72 hrs by FITC-annexin-V/PI analysis (reference value: 91.41%); type: functional; conditions: read-out: Activity
RS4-11 [18] = assay: Induction of apoptosis in human RS4-11 cells assessed as early apoptotic cells at 1 nM measured after 72 hrs by FITC-annexin-V/PI analysis (reference value: 5.36%); type: functional
RS4-11 [19] = assay: Induction of apoptosis in human RS4-11 cells assessed as late apoptotic cells at 1 nM measured after 72 hrs by FITC-annexin-V/PI analysis (reference value: 3.23%); type: functional
RS4-11 [20] = assay: Induction of apoptosis in human RS4-11 cells assessed as necrotic cells at 1 nM measured after 72 hrs by FITC-annexin-V/PI analysis (reference value: 0%); type: functional
RS4-11 [21] = assay: Induction of apoptosis in human RS4-11 cells assessed as viable cells at 10 nM measured after 72 hrs by FITC-annexin-V/PI analysis (reference value: 91.41%); type: functional; conditions: read-out: Activity
RS4-11 [22] = assay: Induction of apoptosis in human RS4-11 cells assessed as necrotic cells at 10 nM measured after 72 hrs by FITC-annexin-V/PI analysis (reference value: 0%); type: functional
RS4-11 [23] = assay: Induction of apoptosis in human RS4-11 cells assessed as viable cells at 100 nM measured after 72 hrs by FITC-annexin-V/PI analysis (reference value: 91.41%); type: functional; conditions: read-out: Activity
RS4-11 [24] = assay: Induction of apoptosis in human RS4-11 cells assessed as late apoptotic cells at 100 nM measured after 72 hrs by FITC-annexin-V/PI analysis (reference value: 3.23%); type: functional
RS4-11 [25] = assay: Induction of apoptosis in human RS4-11 cells assessed as necrotic cells at 100 nM measured after 72 hrs by FITC-annexin-V/PI analysis (reference value: 0%); type: functional
RS4-11 [26] = assay: Induction of apoptosis in human RS4-11 cells assessed as necrotic cells at 1000 nM measured after 72 hrs by FITC-annexin-V/PI analysis (reference value: 0%); type: functional
RS4-11 [27] = assay: Induction of cell cycle arrest in human RS4-11 cells assessed as assessed as accumulation cells at G1/G0 phase measured after 12 hrs by flow cytometry; type: functional, cell-based; conditions: dose 1-1000 nM
RS4-11 [28] = assay: Induction of cell cycle arrest in human RS4-11 cells assessed as assessed as total apoptotic cells at 1 nM measured after 12 hrs by flow cytometry relative to control; type: functional
RS4-11 [29] = assay: Antitumor activity against human RS4-11 cells xenografted in NOD/SCID mouse model assessed as tumor growth inhibition at 5 mg/kg, ip daily measured after 18 days relative to control; type: functional; conditions: RS4-11, 432 h, time 18 day, read-out: TGI
RS4-11 [30] = assay: Antitumor activity against human RS4-11 cells xenografted in NOD/SCID mouse model assessed as tumor growth inhibition at 10 mg/kg, ip daily measured after 18 days relative to control; type: functional; conditions: RS4-11, 432 h, time 18 day, read-out: TGI
RS4-11 [31] = assay: Antitumor activity against human RS4-11 cells xenografted in NOD/SCID mouse model assessed as tumor growth inhibition at 20 mg/kg, ip daily measured after 18 days relative to control; type: functional; conditions: RS4-11, 432 h, time 18 day, read-out: TGI
[32] = Toxicity in NOD/SCID mouse xenografted with human RS4-11 cells assessed as body weight change at 5 to 20 mg/kg, ip daily measured after 18 days relative to control; type: organism-based; conditions: in vivo, 432 h, dose 5-20 mg/kg, time 18 day
[33] = Toxicity in NOD/SCID mouse xenografted with human RS4-11 cells assessed as signs of toxicity at 5 to 20 mg/kg, ip daily measured after 18 days relative to control; type: organism-based; conditions: in vivo, 432 h, dose 5-20 mg/kg, time 18 day
RS4-11 [34] = assay: Antitumor activity against human RS4-11 cells xenografted in NOD/SCID mouse model assessed as decrease in USP7 level in tumor at 5 to 20 mg/kg, ip daily measured after 18 days relative to control; type: functional, organism-based; conditions: dose 5-20 mg/kg, time 18.0 day

Activity [1]: 91.6%
Activity [2]: 91.7%
DC50 [3]: 0.74 nM
Emax [4]: 93.1%
Activity [5]: Active
Activity [6]: Active
Activity [7]: Active
Activity [8]: Active
Activity [11]: inactive
Activity [12]: inactive
Activity [13]: inactive
Activity [14]: Active
IC50 (RS4-11 [15]): 0.5 nM
IC50 (RS4-11 [16]): > 20 µM
Compound: Cc1ncsc1-c1ccc([C@H](C)NC(=O)[C@@H]2C[C@@H](O)CN2C(=O)[C@@H](c2cc(N3CCN(Cc4ccc(-c5c6ncn(CC7(O)CCN(C(=O)C[C@@H](C)c8ccccc8)CC7)c(=O)c6nn5C)cc4)CC3)no2)C(C)C)cc1
Activity (RS4-11 [9]): Dose-Dependent Effect
Activity (RS4-11 [10]): Dose-Dependent Effect
IC50 (REH): 8.3 nM
viability at 0.001 µM (RS4-11 [17]): 74.6%
Activity (RS4-11 [18]): 12.45%
Activity (RS4-11 [19]): 12.98%
Activity (RS4-11 [20]): 0%
viability at 0.01 µM (RS4-11 [21]): 65.7%
Activity (RS4-11 [22]): 0.01%
viability at 0.1 µM (RS4-11 [23]): 59.7%
Activity (RS4-11 [24]): 20.73%
Activity (RS4-11 [25]): 0.01%
Activity (RS4-11 [26]): 0%
Activity (RS4-11 [27]): Dose-Dependent Effect
Activity (RS4-11 [28]): 12.98%
inhibition in vivo at 5 mg/kg (RS4-11 [29]): 64.7%
inhibition in vivo at 10 mg/kg (RS4-11 [30]): 60.8%
inhibition in vivo at 20 mg/kg (RS4-11 [31]): 78.7%
Activity [32]: Non-Toxic
Activity [33]: Non-Toxic
Activity (RS4-11 [34]): Active
